# Source: ChEMBL document CHEMBL1126299, “Synthesis and structure-activity relationships of cephalosporins with C-3' catechol-containing residues” (J Med Chem, 1992)
# What was measured:
# Escherichia coli [1] = experiment: microbe, parasite or virus in culture
# Description: In vitro minimum inhibitory concentration against Escherichia coli (DC0 parent organism).
# Enterobacter cloacae [2] = experiment: microbe, parasite or virus in culture
# Description: Minimum inhibitory concentration in Enterobacter cloacae, P99- inducible type 1 lactamase producer
# Enterobacter cloacae [3] = experiment: microbe, parasite or virus in culture; remark: listed apart in the source
# Description: Minimum inhibitory concentration in Enterobacter cloacae, DR 401108 constitutive depressed type 1 lactamase producer
# Citrobacter freundii [4] = experiment: microbe, parasite or virus in culture
# Description: Minimum inhibitory concentration in Citrobacter freundii, I+382010 inducible type 1 lactamase producer
# Enterobacter cloacae [5] = experiment: microbe, parasite or virus in culture; remark: listed apart in the source
# Description: Minimum inhibitory concentration in Enterobacter cloacae, P99+ constitutive depressed type 1 lactamase producer
# Providencia stuartii [6] = experiment: microbe, parasite or virus in culture
# Description: Minimum inhibitory concentration in Pseudomonas stuartii, DR 442049 constitutive depressed type 1 lactamase producer
# Providencia stuartii [7] = experiment: microbe, parasite or virus in culture; remark: listed apart in the source
# Description: Minimum inhibitory concentration in Pseudomonas stuartii, I+442019 inducible type 1 lactamase producer
# Citrobacter freundii [8] = experiment: microbe, parasite or virus in culture; remark: listed apart in the source
# Description: Minimum inhibitory concentration in Citrobacter freundii, DR 382031 constitutive depressed type 1
# Pseudomonas aeruginosa [9] = experiment: microbe, parasite or virus in culture
# Description: Minimum inhibitory concentration in Pseudomonas aeruginosa,799/61 permeability mutant
# Staphylococcus aureus [10] = experiment: microbe, parasite or virus in culture
# Description: The compound was tested for minimum inhibitory concentration in Staphylococcus aureus,147N penicillin sensitive Staphylococcus aureus
# Enterobacter cloacae [11] = experiment: microbe, parasite or virus in culture; remark: listed apart in the source
# Description: Minimum inhibitory concentration in Enterobacter cloacae, I+401029 inducible type 1 lactamase producer
# Pseudomonas aeruginosa [12] = experiment: microbe, parasite or virus in culture; remark: listed apart in the source
# Description: Minimum inhibitory concentration in Pseudomonas aeruginosa,799WT parent organism
# Pseudomonas aeruginosa [13] = experiment: microbe, parasite or virus in culture; remark: listed apart in the source
# Description: Minimum inhibitory concentration in Pseudomonas aeruginosa, 18SH constitutive depressed type 1 lactamase producer
# Escherichia coli [14] = experiment: microbe, parasite or virus in culture; remark: listed apart in the source
# Description: In vitro minimum inhibitory concentration against Escherichia coli (DC2 permeability mutant).
# Pseudomonas aeruginosa [15] = experiment: microbe, parasite or virus in culture; remark: listed apart in the source
# Description: Minimum inhibitory concentration in Pseudomonas aeruginosa, 18S inducible type 1 lactamase producer
# Pseudomonas aeruginosa [16] = experiment: microbe, parasite or virus in culture; remark: listed apart in the source
# Description: In vitro minimum inhibitory concentration against Pseudomonas aeruginosa (PU21).
# Staphylococcus aureus [17] = experiment: microbe, parasite or virus in culture; remark: listed apart in the source
# Description: The compound was tested for minimum inhibitory concentration in Staphylococcus aureus Oxford penicillin sensitive Staphylococcus aureus
# [18] = The compound was evaluated for area under the curve in marmosets; assay type: ADME; conditions: callithrix, in vivo
# [19] = The half life period in marmosets; assay type: ADME; conditions: callithrix, in vivo
# Description for physchem: The dissociation constant of compound was tested for beta-Lactamase stability
SMILES,MIC (Escherichia coli [1]),MIC (Enterobacter cloacae [2]),MIC (Enterobacter cloacae [3]),MIC (Citrobacter freundii [4]),MIC (Enterobacter cloacae [5]),MIC (Providencia stuartii [6]),MIC (Providencia stuartii [7]),MIC (Citrobacter freundii [8]),MIC (Pseudomonas aeruginosa [9]),MIC (Staphylococcus aureus [10]),MIC (Enterobacter cloacae [11]),MIC (Pseudomonas aeruginosa [12]),MIC (Pseudomonas aeruginosa [13]),MIC (Escherichia coli [14]),MIC (Pseudomonas aeruginosa [15]),MIC (Pseudomonas aeruginosa [16]),MIC (Staphylococcus aureus [17]),AUC [18],pKa (physchem),half-life [19]
Nc1nc(/C(=N/OC(C(=O)O)c2ccccc2)C(=O)N[C@@H]2C(=O)N3C(C(=O)O)=C(CNC(=O)c4cc(O)c(O)c(Br)c4)CSC23)cs1 (stereo partly specified),0.008 µg/mL,0.06 µg/mL,> 128 µg/mL,0.008 µg/mL,2 µg/mL,0.25 µg/mL,0.06 µg/mL,4 µg/mL,0.008 µg/mL,16 µg/mL,0.03 µg/mL,0.015 µg/mL,0.03 µg/mL,0.008 µg/mL,0.008 µg/mL,0.015 µg/mL,16 µg/mL,–,–,–
CCO/N=C(\C(=O)N[C@@H]1C(=O)N2C(C(=O)O)=C(CNC(=O)c3ccc(O)c(O)c3)CSC12)c1csc(N)n1 (stereo partly specified),0.06 µg/mL,0.5 µg/mL,128 µg/mL,0.06 µg/mL,64 µg/mL,1 µg/mL,0.5 µg/mL,> 128 µg/mL,0.015 µg/mL,4 µg/mL,0.25 µg/mL,0.06 µg/mL,64 µg/mL,0.008 µg/mL,0.03 µg/mL,0.25 µg/mL,2 µg/mL,–,–,–
CC(C)(O/N=C(\C(=O)N[C@@H]1C(=O)N2C(C(=O)O)=C(CCNC(=O)Nc3ccc(O)c(O)c3)CSC12)c1csc(N)n1)C(=O)O (stereo partly specified),0.06 µg/mL,1 µg/mL,64 µg/mL,0.25 µg/mL,16 µg/mL,16 µg/mL,2 µg/mL,8 µg/mL,0.125 µg/mL,64 µg/mL,0.5 µg/mL,0.125 µg/mL,0.125 µg/mL,0.015 µg/mL,0.125 µg/mL,0.125 µg/mL,64 µg/mL,–,–,–
CCOC(=O)c1nc2cc(O)c(O)cc2nc1C(=O)NCC1=C(C(=O)O)N2C(=O)[C@@H](NC(=O)/C(=N\OC(C)(C)C(=O)O)c3csc(N)n3)C2SC1 (stereo partly specified),–,0.03 µg/mL,0.5 µg/mL,0.008 µg/mL,0.06 µg/mL,2 µg/mL,0.06 µg/mL,0.06 µg/mL,0.008 µg/mL,–,0.03 µg/mL,0.008 µg/mL,0.015 µg/mL,–,0.008 µg/mL,–,–,–,–,–
CC(C)(O/N=C(\C(=O)N[C@@H]1C(=O)N2C(C(=O)O)=C(CNC(=O)c3cc(O)c(O)c(C#N)c3)CSC12)c1csc(N)n1)C(=O)O (stereo partly specified),–,0.06 µg/mL,8 µg/mL,0.008 µg/mL,2 µg/mL,4 µg/mL,0.06 µg/mL,2 µg/mL,0.008 µg/mL,–,0.03 µg/mL,0.008 µg/mL,0.06 µg/mL,–,0.008 µg/mL,–,–,–,–,–
CC(C)(O/N=C(\C(=O)N[C@@H]1C(=O)N2C(C(=O)O)=C(CNC(=O)c3cc(O)c(O)c(Cl)c3)CSC12)c1csc(N)n1)C(=O)O (stereo partly specified),0.008 µg/mL,0.06 µg/mL,16 µg/mL,0.008 µg/mL,4 µg/mL,2 µg/mL,0.03 µg/mL,4 µg/mL,0.008 µg/mL,16 µg/mL,0.06 µg/mL,0.008 µg/mL,0.003 µg/mL,0.008 µg/mL,0.008 µg/mL,0.008 µg/mL,16 µg/mL,638.3 mg/h/L,7,4.57 h
C=C(CO/N=C(\C(=O)N[C@@H]1C(=O)N2C(C(=O)O)=C(CNC(=O)c3cc(O)c(O)c(Br)c3)CSC12)c1csc(N)n1)C(=O)O (stereo partly specified),0.008 µg/mL,0.06 µg/mL,> 32 µg/mL,0.008 µg/mL,8 µg/mL,2 µg/mL,0.03 µg/mL,16 µg/mL,0.008 µg/mL,16 µg/mL,0.06 µg/mL,0.008 µg/mL,0.05 µg/mL,0.008 µg/mL,0.008 µg/mL,0.03 µg/mL,16 µg/mL,–,–,–
CCO/N=C(\C(=O)N[C@@H]1C(=O)N2C(C(=O)O)=C(CNC(=O)c3cn(CC)c4cc(O)c(O)cc4c3=O)CSC12)c1csc(N)n1 (stereo partly specified),0.008 µg/mL,0.03 µg/mL,32 µg/mL,0.008 µg/mL,1 µg/mL,2 µg/mL,0.06 µg/mL,0.5 µg/mL,0.008 µg/mL,1 µg/mL,0.015 µg/mL,0.015 µg/mL,0.25 µg/mL,0.008 µg/mL,0.008 µg/mL,0.06 µg/mL,2 µg/mL,–,–,–
Nc1nc(/C(=N/OC2(C(=O)O)CCCC2)C(=O)N[C@@H]2C(=O)N3C(C(=O)O)=C(CNC(=O)c4cc(O)c(O)c(Br)c4)CSC23)cs1 (stereo partly specified),0.008 µg/mL,0.03 µg/mL,16 µg/mL,0.008 µg/mL,2 µg/mL,2 µg/mL,0.03 µg/mL,4 µg/mL,0.008 µg/mL,32 µg/mL,0.03 µg/mL,0.008 µg/mL,0.008 µg/mL,0.008 µg/mL,0.015 µg/mL,0.015 µg/mL,16 µg/mL,–,–,–
